Columns and labels:
Assay type in all cases: cell-based, human
IL-1β = assay: Gene expression of inflammatory cytokine IL-1β in LPS-induced HCE-2 cells (Real-Time PCR); conditions: 500 ng/mL LPS 6 hours, then 2 hours treatment, compared with LPS group, FIG. 3A
Method: (§1) 3×10^5 (cell/ml) human corneal epithelial cells (HCE-2) were cultured in a 6-well plate and cultured overnight in an incubator for cell attachment, followed 500 ng/mL lipopolysaccharides (LPS) was added in culture medium for co-cultured with cells for 6 hours to induce cell inflammation. After 6 hours, the medium containing lipopolysaccharide (LPS) was removed, and the medium with the lutein, PVA was added to a 6-well plate. After 2 hours of treatment, the gene expressions of cellular inflammatory cytokines (IL-1β, IL-6, TNF-α) were detected by real-time polymerase chain reaction (Real-Time PCR). […]

TNF-α = assay: Gene expression of inflammatory cytokine TNF-α in LPS-induced HCE-2 cells (Real-Time PCR); conditions: 500 ng/mL LPS 6 hours, then 2 hours treatment, compared with LPS group, FIG. 3C
Method: as §1

IL-6 = assay: Gene expression of inflammatory cytokine IL-6 in LPS-induced HCE-2 cells (Real-Time PCR); conditions: 500 ng/mL LPS 6 hours, then 2 hours treatment, compared with LPS group, FIG. 3B
Method: as §1

CC1=C[C@H](O)CC(C)(C)[C@H]1/C=C/C(C)=C/C=C/C(C)=C/C=C/C=C(C)/C=C/C=C(C)/C=C/C1=C(C)C[C@@H](O)CC1(C)C [lutein (L), lutein]
inhibit the expression: gene expression of IL-1β (IL-1β) | gene expression of TNF-α (TNF-α) | gene expression of IL-6 (IL-6)
